In US10947260B2, “Phosphinolactone derivatives and pharmaceutical uses thereof” (INSTITUT NATIONAL DE LA SANTE ET DE LA RECHERCHE MEDICALE …, priority 2016, dated 2021):

How the values were obtained:
mice = assay: Forced swim test; type: in vivo; conditions: 5 mg/kg
Procedure: FIG. 13: Assays of compound 3b as positive modulator of the sigma-1 protein. […] Male Swiss mice aged 7 weeks (n=10-12 per group) were forced to swim for 15 min on Day 1 and 6 min on Day 2. They were given NE-100 (10 mg/kg ip), 10 min before compound 3b (10 mg/kg ip) and 20 min before the session of Day 2. Immobility was measured over the last 5 minutes of the session. The vehicle solution was distilled water. F(3.42)=4.45, p<0.01; **p<0.01 vs. group V/V, ##p<0.01 vs. group V/3b, Dunnet test. […] Wild-type mice (Wt, n=14-15) and S1R KO mice (n=9-10) were forced to swim 15 min on Day 1 and 6 min on Day 2. They were given compound 3b (10 mg/kg ip) 20 min before the session on Day 2. Immobility was measured during the last 5 minutes of the session. The vehicle solution was distilled water. F(3.49)=6.64, p<0.001; **p<0.01 vs. group Wt/V, Dunnett test. […] Male Swiss mice aged 7 weeks (n=8-23 per group) were forced to swim for 15 min on Day 1 and 6 min on Day 2. They were given igmesine (10, 30 mg/kg ip) and/or compound 3b (10 mg/kg ip) 20 min before the session on Day 2. NE-100 (10 mg/kg ip) was injected 10 min before igmesine and compound 3b. Immobility was measured during the last 5 minutes of the session. The vehicle solution was distilled water. F(6.90)=5.59, p<0.0001; ***p<0.001 vs. group V, ##p<0.01 vs. group V/Igmesine (10)+3B (5), Dunnett test.

[1] = system: mice treated with Aβ25-35
Procedure: The hippocampi were homogenized in 50 mM Tris-150 mM NaCl solution, pH 7.5, and sonicated for 20 s. After centrifugation at 16 100 g for 15 min at 4° C., the supernatants were used for ELISA assays in accordance with the manufacturer's instructions (ThermoScientific, Courtaboeuf, France; USCN, Wuhan, China). For each assay, absorbance was read at 450 nm and the concentration of each sample calculated in comparison with a standard curve. The results are expressed in ng or pg per mg of tissue and expressed as % of the control group.
On Day 9, the animals were sacrificed, the brains removed, the hippocampi and cortex dissected and frozen.

[2] = system: mice treated with Aβ25-35; assay: Passive avoidance test, Aβ25-35 model; type: in vivo; conditions: 0.1 and 0.3 mg/kg IP; Days 8 and 9
Procedure: The amyloid-β[25-35] peptide (Aβ25-35) and control peptide (Sc.Aβ) were obtained from Genepep (Saint-Jean-de-Vedas, France). They were solubilized in injectable distilled water at a concentration of 3 mg/ml and stored at −20° C. Before injection, the peptides were incubated at 37° C. for 4 days, which enabled the Aβ25-35 peptide but not the Sc.Aβ, to form oligomers. They were administered via intracerebroventricular route (ICV). The animals were anesthetized by inhaling 2.5% isoflurane (TEM) and were given 3 μl of peptide solution via direct ICV route (Haley and McCormick's method). For injection a 10 μl Hamilton micro-syringe was used at a flow rate of 1 μl/min.
The apparatus contained two compartments (15×20×15 cm in height) with one light part having walls in white PVC and the other dark with walls in black PVC and a grid floor. A vertical sliding door separated each compartment. A 60 W lamp was positioned 40 cm above the white compartment during the experiment. Electrical shocks (0.3 mA for 3 s) were delivered to the grid floor by means of a scrambled shock generator (Lafayette Instruments, Lafayette, United States). The vertical sliding door was first closed during the training session. […] Step-through latency (STL) i.e. the time taken to enter the dark compartment and the number of cries, were recorded. […] Step-through latency was recorded up to 300 s. […]

APPSwe mice = assay: Biochemical analyses in hippocampus of APPSwe mice; type: in vivo; conditions: 1 mg/kg/j IP
Procedure: FIG. 12: Biochemical analyses of the effect of treatments with compound 3b (a) or 3c (b) in the hippocampus of APPSwe mice. Oxidative stress was measured via the level of peroxidation of membrane lipids at (a), or DCF fluorescence at (b). The expression levels of synaptophysin, Bax, IL1β and TNFα were measured using commercial Elisa kits. The values are given as % of the control group WT/V. N=6-8 per group. *p<0.05, **p<0.01 compared with group WT/V; #p<0.05, ##p<0.01 compared with group APPSwe/V; Student t-test.
After sacrifice, the hippocampus and brain cortex of the mice were dissected and frozen to −80° C. until use. The accumulation of reactive oxygen species was measured by fluorescence of 2′,7′-dichlorofluorescein (DCF) in the hippocampus of the mice ex vivo. DCF diacetate (0.5 μM) (Sigma-Aldrich) was added to SDS-soluble fractions of hippocampus extract. After 30 min at 37° C., DCF fluorescence was quantified (excitation at 485 nm, emission at 530 nm) in a Fluoroskan Ascent spectrofluorometer (Thermo Scientific, Waltham, USA), and normalized with the protein concentrations of the extracts.
Peroxidation of membrane lipids was measured using the cumene/xylenol method. The hippocampi were homogenized in methanol (1:10), centrifuged at 1 000 g for 5 min and the supernatant collected. Aliquots were added to a solution containing 1 mM FeSO4, 0.25 m H2SO4, 1 mM xylenol orange and incubated for 30 min at ambient temperature. Absorbance was measured at 580 nm (A5801), then 10 μl of 1 mM cumene hydroperoxide (CHP) was added and the sample incubated 30 min at ambient temperature. Absorbance was measured at 580 nm (A5802). Lipid peroxidation level was determined as CHP equivalents: CHP eq.=A5801/A5802×[CHP (nmol)]×dilution, and calculated in CHP eq. per tissue weight expressed as % of the control group.
Various biochemical parameters were analysed in the hippocampus of APPSwe mice after treatments with 3b, 2 mg/kg/j IP, or 3c, 1 mg/kg/j IP (FIG. 12).

[3] = 1.5 mg/kg IP, control ScAβ animals

SMILES	activity in forced swim test (mice)	Bax in control animals ScAβ [1, 3]	Bax/Bcl2 ratio in control animals ScAβ [1, 3]	Bcl2 levels ([1]; 0.3-1.5 mg/kg IP)	long-term memory response (passive avoidance step-through latency) [2]	IL1β level, hippocampus (APPSwe mice)	expression of Bax, hippocampus (APPSwe mice)	oxidative stress (DCF fluorescence), hippocampus (APPSwe mice)	synaptophysin level, hippocampus (APPSwe mice)
CC1(C)COP(=O)(c2cccc(Cl)c2)C(C)(C)N1 (racemic) [Compound 3b, (±)-2-(3-Chlorophenyl)-2-oxo-3,3,5,5-tetramethyl-[1,4,2]-oxazaphosphinane]	not active	tends to increase Bax	tends to increase	no effect					
CC1(C)COP(=O)(c2ccc(Cl)cc2)C(C)(C)N1 (racemic) [Compound 3c, (±)-2-(4-Chlorophenyl)-2-oxo-3,3,5,5-tetramethyl-[1,4,2]-oxazaphosphinane]					appeared effective	not	caused a decrease	not	not
